# Patent publication US5219884A, “Immunosuppressant” (Taito Co., Ltd., priority 1990, dated 1993)
# Like-named read-outs stand apart in the source and are kept apart here.
# What was measured:
# PC-14 = test: in vitro; format: cell-based, human
# HL60 = test: in vitro; format: cell-based, human
# KB = test: in vitro; format: cell-based, human
# CCRF-CEM = test: in vitro; format: cell-based, human
# K562 = test: in vitro; format: cell-based, human
# in vitro = format: cell-based, human; conditions: human, read-out: Suppression
# U937 = test: in vitro; format: cell-based, human
# mouse L929 cells = test: cytotoxicity to mouse L929 cells; format: cell-based; conditions: 550 nm
# [1] = cytotoxicity to mouse L929 cells; format: cell-based; conditions: mouse, l929 cells, read-out: Suppression
# [2] = test system: mouse allogenic mixed lymphocyte reaction (BALB/c responder, C57BL/6 stimulator spleen cells); test: mouse allogenic mixed lymphocyte reaction (MLR), blastogenesis by 3H-thymidine uptake; format: cell-based; conditions: for inhibition at 0.001 µg/mL / inhibition at 0.01 µg/mL / inhibition at 0.1 µg/mL: Mus musculus, Lymphocyte, read-out: Suppression
# MOLT4 = test: cytotoxicity to tumor cell line MOLT4; format: cell-based, human
# Outline: (§1)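 Human tumour lines at 2×10^5 cells/ml in RPMI1640 with 20% FCS were mixed 1:1 with test solution and cultured 72 h at 37° C, 5% CO2. MTT colorimetry at 550 nm; percent suppression served as the cytotoxicity index.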
# [3] = cytotoxicity to tumor cell line MOLT4; format: cell-based, human; conditions: human, molt4 cells, read-out: Suppression
# Outline: as §1
structure (smiles),measurement,setting,value
CCCCCCC(O)CCCCCCCCCC1OC(=O)C(N)(CO)C1O (stereo not drawn) [Example 10],Absorbancy,PC-14; 0.1 μg/ml,0.433
same,Absorbancy,PC-14; 1.0 μg/ml,0.411
same,Absorbancy,PC-14; 10.0 μg/ml,0.317
same,Absorbancy,HL60; 0.1 μg/ml,0.447
same,Absorbancy,HL60; 1.0 μg/ml,0.415
same,Absorbancy,HL60; 10.0 μg/ml,0.406
same,Absorbancy,KB; 0.1 μg/ml,0.743
same,Absorbancy,KB; 1.0 μg/ml,0.735
same,Absorbancy,KB; 10.0 μg/ml,0.610
same,Absorbancy,CCRF-CEM; 0.1 μg/ml,0.672
same,Absorbancy,CCRF-CEM; 1.0 μg/ml,0.647
same,Absorbancy,CCRF-CEM; 10.0 μg/ml,0.645
same,Absorbancy,K562; 0.1 μg/ml,0.390
same,Absorbancy,K562; 1.0 μg/ml,0.343
same,Absorbancy,K562; 10.0 μg/ml,0.311
same,cytotoxicity at 72 h,"in vitro; ccrf-cem cells, 0.1 μg/ml",2.9%
same,cytotoxicity at 72 h,"in vitro; ccrf-cem cells, 1.0 μg/ml",6.5%
same,cytotoxicity at 72 h,"in vitro; ccrf-cem cells, 10.0 μg/ml",6.8%
same,cytotoxicity at 72 h,"in vitro; hl60 cells, 0.1 μg/ml",14.4%
same,cytotoxicity at 72 h,"in vitro; hl60 cells, 1.0 μg/ml",20.5%
same,cytotoxicity at 72 h,"in vitro; hl60 cells, 10.0 μg/ml",22.3%
same,cytotoxicity at 72 h,"in vitro; k562 cells, 0.1 μg/ml",0%
same,cytotoxicity at 72 h,"in vitro; k562 cells, 1.0 μg/ml",10.9%
same,cytotoxicity at 72 h,"in vitro; k562 cells, 10.0 μg/ml",19.2%
same,cytotoxicity at 72 h,"in vitro; kb cells, 0.1 μg/ml",0%
same,cytotoxicity at 72 h,"in vitro; kb cells, 1.0 μg/ml",0%
same,cytotoxicity at 72 h,"in vitro; kb cells, 10.0 μg/ml",16.4%
same,cytotoxicity at 72 h,"in vitro; pc-14 cells, 0.1 μg/ml",8.6%
same,cytotoxicity at 72 h,"in vitro; pc-14 cells, 1.0 μg/ml",13.3%
same,cytotoxicity at 72 h,"in vitro; pc-14 cells, 10.0 μg/ml",33.1%
same,cytotoxicity at 72 h,"in vitro; u937 cells, 0.1 μg/ml",6.5%
same,cytotoxicity at 72 h,"in vitro; u937 cells, 1.0 μg/ml",7.2%
same,cytotoxicity at 72 h,"in vitro; u937 cells, 10.0 μg/ml",11.3%
same,Absorbancy,U937; 0.1 μg/ml,0.545
same,Absorbancy,U937; 1.0 μg/ml,0.541
same,Absorbancy,U937; 10.0 μg/ml,0.517
same,Absorbancy,mouse L929 cells; 1 μg/ml,0.722
same,Absorbancy,mouse L929 cells; 10 μg/ml,0.661
same,Absorbancy,mouse L929 cells; 100 μg/ml,0.023
same,cytotoxicity at 48 h,[1]; 1 μg/ml,0%
same,cytotoxicity at 48 h,[1]; 10 μg/ml,0%
same,cytotoxicity at 48 h,[1]; 100 μg/ml,96%
same,3H-thymidine uptake,[2]; 0.001 μg/ml,19595 cpm
same,3H-thymidine uptake,[2]; 0.01 μg/ml,19019 cpm
same,3H-thymidine uptake,[2]; 0.1 μg/ml,2405 cpm
same,inhibition at 0.001 µg/mL,[2]; 0.001 μg/ml,36.4%
same,inhibition at 0.01 µg/mL,[2]; 0.01 μg/ml,39.1%
same,inhibition at 0.1 µg/mL,[2]; 0.1 μg/ml,100%
same,Absorbancy,MOLT4; 0.1 μg/ml,0.148
same,Absorbancy,MOLT4; 1.0 μg/ml,0.159
same,Absorbancy,MOLT4; 10.0 μg/ml,0.170
same,cytotoxicity at 72 h,[3]; 0.1 μg/ml,0%
same,cytotoxicity at 72 h,[3]; 1.0 μg/ml,0%
same,cytotoxicity at 72 h,[3]; 10.0 μg/ml,0%
CCCCCCC(=O)CCCCCCCCCC1OC(=O)C(N)(CO)C1O (stereo not drawn) [Example 7],Absorbancy,PC-14; 0.1 μg/ml,0.446
same,Absorbancy,PC-14; 1.0 μg/ml,0.424
same,Absorbancy,PC-14; 10.0 μg/ml,0.315
same,Absorbancy,HL60; 0.1 μg/ml,0.432
same,Absorbancy,HL60; 1.0 μg/ml,0.427
same,Absorbancy,HL60; 10.0 μg/ml,0.428
same,Absorbancy,KB; 0.1 μg/ml,0.726
same,Absorbancy,KB; 1.0 μg/ml,0.695
same,Absorbancy,KB; 10.0 μg/ml,0.493
same,Absorbancy,CCRF-CEM; 0.1 μg/ml,0.681
same,Absorbancy,CCRF-CEM; 1.0 μg/ml,0.653
same,Absorbancy,CCRF-CEM; 10.0 μg/ml,0.587
same,Absorbancy,K562; 0.1 μg/ml,0.387
same,Absorbancy,K562; 1.0 μg/ml,0.332
same,Absorbancy,K562; 10.0 μg/ml,0.302
same,cytotoxicity at 72 h,"in vitro; ccrf-cem cells, 0.1 μg/ml",1.6%
same,cytotoxicity at 72 h,"in vitro; ccrf-cem cells, 1.0 μg/ml",5.6%
same,cytotoxicity at 72 h,"in vitro; ccrf-cem cells, 10.0 μg/ml",15.2%
same,cytotoxicity at 72 h,"in vitro; hl60 cells, 0.1 μg/ml",17.2%
same,cytotoxicity at 72 h,"in vitro; hl60 cells, 1.0 μg/ml",18.2%
same,cytotoxicity at 72 h,"in vitro; hl60 cells, 10.0 μg/ml",18%
same,cytotoxicity at 72 h,"in vitro; k562 cells, 0.1 μg/ml",0%
same,cytotoxicity at 72 h,"in vitro; k562 cells, 1.0 μg/ml",13.8%
same,cytotoxicity at 72 h,"in vitro; k562 cells, 10.0 μg/ml",21.6%
same,cytotoxicity at 72 h,"in vitro; kb cells, 0.1 μg/ml",0.5%
same,cytotoxicity at 72 h,"in vitro; kb cells, 1.0 μg/ml",4.8%
same,cytotoxicity at 72 h,"in vitro; kb cells, 10.0 μg/ml",32.5%
same,cytotoxicity at 72 h,"in vitro; pc-14 cells, 0.1 μg/ml",5.9%
same,cytotoxicity at 72 h,"in vitro; pc-14 cells, 1.0 μg/ml",10.5%
same,cytotoxicity at 72 h,"in vitro; pc-14 cells, 10.0 μg/ml",33.5%
same,cytotoxicity at 72 h,"in vitro; u937 cells, 0.1 μg/ml",0%
same,cytotoxicity at 72 h,"in vitro; u937 cells, 1.0 μg/ml",0%
same,cytotoxicity at 72 h,"in vitro; u937 cells, 10.0 μg/ml",5.5%
same,Absorbancy,U937; 0.1 μg/ml,0.588
same,Absorbancy,U937; 1.0 μg/ml,0.593
same,Absorbancy,U937; 10.0 μg/ml,0.551
same,Absorbancy,mouse L929 cells; 0.1 μg/ml,0.799
same,Absorbancy,mouse L929 cells; 1 μg/ml,0.811
same,Absorbancy,mouse L929 cells; 10 μg/ml,0.696
same,cytotoxicity at 48 h,[1]; 0.1 μg/ml,0%
same,cytotoxicity at 48 h,[1]; 1 μg/ml,0%
same,cytotoxicity at 48 h,[1]; 10 μg/ml,0%
same,3H-thymidine uptake,[2]; 0.001 μg/ml,24446 cpm
same,3H-thymidine uptake,[2]; 0.01 μg/ml,34378 cpm
same,3H-thymidine uptake,[2]; 0.1 μg/ml,3546 cpm
same,inhibition at 0.001 µg/mL,[2]; 0.001 μg/ml,13.4%
same,inhibition at 0.01 µg/mL,[2]; 0.01 μg/ml,0%
same,inhibition at 0.1 µg/mL,[2]; 0.1 μg/ml,100%
same,Absorbancy,MOLT4; 0.1 μg/ml,0.107
same,Absorbancy,MOLT4; 1.0 μg/ml,0.123
same,Absorbancy,MOLT4; 10.0 μg/ml,0.100
same,cytotoxicity at 72 h,[3]; 0.1 μg/ml,26.2%
same,cytotoxicity at 72 h,[3]; 1.0 μg/ml,15.2%
same,cytotoxicity at 72 h,[3]; 10.0 μg/ml,31%
CCCCCCC(O)CCCCCC/C=C/CC1OC(=O)C(N)(CO)C1O (stereo not drawn) [Example 8],Absorbancy,PC-14; 0.1 μg/ml,0.452
same,Absorbancy,PC-14; 1.0 μg/ml,0.425
same,Absorbancy,PC-14; 10.0 μg/ml,0.326
same,Absorbancy,HL60; 0.1 μg/ml,0.434
same,Absorbancy,HL60; 1.0 μg/ml,0.445
same,Absorbancy,HL60; 10.0 μg/ml,0.418
same,Absorbancy,KB; 0.1 μg/ml,0.741
same,Absorbancy,KB; 1.0 μg/ml,0.749
same,Absorbancy,KB; 10.0 μg/ml,0.706
same,Absorbancy,CCRF-CEM; 0.1 μg/ml,0.720
same,Absorbancy,CCRF-CEM; 1.0 μg/ml,0.694
same,Absorbancy,CCRF-CEM; 10.0 μg/ml,0.665
same,Absorbancy,K562; 0.1 μg/ml,0.327
same,Absorbancy,K562; 1.0 μg/ml,0.321
same,Absorbancy,K562; 10.0 μg/ml,0.298
same,cytotoxicity at 72 h,"in vitro; ccrf-cem cells, 0.1 μg/ml",0%
same,cytotoxicity at 72 h,"in vitro; ccrf-cem cells, 1.0 μg/ml",0%
same,cytotoxicity at 72 h,"in vitro; ccrf-cem cells, 10.0 μg/ml",3.9%
same,cytotoxicity at 72 h,"in vitro; hl60 cells, 0.1 μg/ml",16.9%
same,cytotoxicity at 72 h,"in vitro; hl60 cells, 1.0 μg/ml",14.8%
same,cytotoxicity at 72 h,"in vitro; hl60 cells, 10.0 μg/ml",19.9%
same,cytotoxicity at 72 h,"in vitro; k562 cells, 0.1 μg/ml",15.1%
same,cytotoxicity at 72 h,"in vitro; k562 cells, 1.0 μg/ml",16.6%
same,cytotoxicity at 72 h,"in vitro; k562 cells, 10.0 μg/ml",22.6%
same,cytotoxicity at 72 h,"in vitro; kb cells, 0.1 μg/ml",0%
same,cytotoxicity at 72 h,"in vitro; kb cells, 1.0 μg/ml",0%
same,cytotoxicity at 72 h,"in vitro; kb cells, 10.0 μg/ml",3.3%
same,cytotoxicity at 72 h,"in vitro; pc-14 cells, 0.1 μg/ml",4.6%
same,cytotoxicity at 72 h,"in vitro; pc-14 cells, 1.0 μg/ml",10.3%
same,cytotoxicity at 72 h,"in vitro; pc-14 cells, 10.0 μg/ml",31.2%
same,cytotoxicity at 72 h,"in vitro; u937 cells, 0.1 μg/ml",0%
same,cytotoxicity at 72 h,"in vitro; u937 cells, 1.0 μg/ml",0.5%
same,cytotoxicity at 72 h,"in vitro; u937 cells, 10.0 μg/ml",12%
same,Absorbancy,U937; 0.1 μg/ml,0.590
same,Absorbancy,U937; 1.0 μg/ml,0.580
same,Absorbancy,U937; 10.0 μg/ml,0.513
same,Absorbancy,mouse L929 cells; 1 μg/ml,0.817
same,Absorbancy,mouse L929 cells; 10 μg/ml,0.738
same,Absorbancy,mouse L929 cells; 100 μg/ml,0.023
same,cytotoxicity at 48 h,[1]; 1 μg/ml,0%
same,cytotoxicity at 48 h,[1]; 10 μg/ml,0%
same,cytotoxicity at 48 h,[1]; 100 μg/ml,96%
same,3H-thymidine uptake,[2]; 0.001 μg/ml,22815 cpm
same,3H-thymidine uptake,[2]; 0.01 μg/ml,3081 cpm
same,3H-thymidine uptake,[2]; 0.1 μg/ml,1586 cpm
same,inhibition at 0.001 µg/mL,[2]; 0.001 μg/ml,21.1%
same,inhibition at 0.01 µg/mL,[2]; 0.01 μg/ml,100%
same,inhibition at 0.1 µg/mL,[2]; 0.1 μg/ml,100%
same,Absorbancy,MOLT4; 0.1 μg/ml,0.142
same,Absorbancy,MOLT4; 1.0 μg/ml,0.137
same,Absorbancy,MOLT4; 10.0 μg/ml,0.133
same,cytotoxicity at 72 h,[3]; 0.1 μg/ml,2.1%
same,cytotoxicity at 72 h,[3]; 1.0 μg/ml,5.5%
same,cytotoxicity at 72 h,[3]; 10.0 μg/ml,8.3%
